Test results as given in patent EP1693059A1, “Use of rocaglamide derivatives as NF-AT-specific inhibitors for the treatment of certain inflammatory diseases” (Deutsches Krebsforschungszentrum, priority 2005, dated 2006).

How the values were obtained:
NF-kappa B subunit p65 = experiment: Immunoblot of nuclear NF-kappa B subunit p65 in activated Jurkat T cells; format: cell-based, human; conditions: PMA/ionomycin 2 h
Experimental: Many inflammatory cytokine genes are transcriptionally activated by the inducible, ubiquitous transcription factors NF-AT, AP-1 and NF-kappa B (Tsai et al., 1996; Sica et al., 1997; Falvo et al., 2000; Macian et aL, 2001; Kaminuma et al., 2002; Li-Weber & Krammer, 2003). Therefore, we first examined the effect of the rocagtamide derivatives on nuclear expression levels of NF-AT, the AP-1 subunit c-Jun, and the NF-kappa B subunit p65 in activated T cells. Nuclear proteins were prepared from Jurkat T cells, stimulated by PMA/iouomycin for 2 h in the presence or absence of different doses of rocaglamides. […] CsA is a well known immunosuppressive reagent that targets NF-AT activity.

NF-kappa B [1] = experiment: NF-kappa B consensus luciferase reporter in Jurkat T cells; format: cell-based, human; conditions: for inhibition of NF-kappa B-dependent transcription: doses higher than 150 nM, 480 min
Description: Luciferase reporter construct containing the human IL-2 (-300/+47), the human IL-4 (-269/+11) promoter and the multiple IL-4 NF-AT (P1) luciferase constructs were generated previously (Ehret et al., 2001; Li-Weber et al., 1998). The multiple copies of the AP-1 binding site from SV40 enhancer ([…]), the NF-kappa B consensus sequence ([…]) and the human IL-2 NF-AT (-282/-250) element ([…]) were constructed by ligation of the DNA sequence into the multiple-cloning site of pTATA-Luc vector. The luciferase reporter construct containing the human IFN-γ (-854/+7) promoter was construct by ligation of the IFN-γ promoter sequence generated by PCR into the luciferase reporter vector. All constructs were confirmed by sequencing analysis. The pLuc-Bax promoter reporter plasmid was kindly provided by M. L. Schmitz (Department for Chemistry and Biochemistry, University of Bern, Switzerland).
Jurkat T cells were transfected by eleclroporation as previously described (Li-Weber et al., 1998). After overnight recovering, the cells were divided and treated with different doses of rocaglamides and than further cultured in the absence or presence of PMA (10 ng/ml) and ionomycin (0.5 µM) for 8 h. Luciferase activity was determined in 10 µl of cell extract using the luciferase assay substrate (Promega Corp., Heidelberg, Germany) with a Duolumat LB9507 luminometer (Berthold, Bad Wildbad, Germany).
Characteristically, NF-AT family proteins act synergistically with AP-1 (Fos/Jun) proteins to activate genes containing composite NF-AT and AP-1 binding sites (Macian et al., 2001). Many cytokine genes, including IL-2, IL-4, and IFN-γ contain NF-AT/AP-1 composite sites in their promoter/enhancer region (Rao et al., 1997). To investigate whether inhibition of NF-AT and c-Jun expression by rocaglamides would lead to suppression of their transcriptional activities, we performed transfection studies with luciferase reporter constructs containing multiple copies of the NF-AT-binding elements derived from the IL-4 and IL-2 promoter and the consensus binding sequences for AP-1 and NF-kappa B, respectively. […]

JNK = experiment: Immunoblot of phosphorylated JNK in Jurkat T cells; format: cell-based, human; conditions: with PMA/ionomycin
Experimental: T cells were lysed in ice-cold RIPA buffer (50 mM Tris-HCl, pH 8.0, 120 mM NaCI, 1% NP-40, 0.5% Desoxycholate, 1 mM PMSF, 25 mM NaF, 1% SDS, 1 mM DTT, 0.2 mM Na3V04 and 20 µl/ml protease inhibitors) for 30 min. […] Equal amounts of proteins were separated on 10% SDS-PAGE gels, transferred onto Hybond-ECL nitrocellulose membrane (Amersham Biosciences, Little Chalfon, UK). The membrane was blocked with 5% milk powder in PBS/0.1% Tween 20 for 1 h, washed with the same solution and incubated with antibodies at 37°C for 1 h or overnight at 4 °C. The blots were washed with PBS/Tween and developed with HRP-coupled antibodies followed by enhanced Chemiluminescence Reagent Plus (PerkinElmer Life Sciences, Boston, MA). […] For stripping, membranes were incubated for 30 min at 56 °C in a buffer containing 62.5 mM Tris-HCl, pH 6.7, 2% SDS and 100 mM β-mercaptoethanol.
To investigate the molecular mechanisms of rocaglamides-mediated suppression of NF-AT activity, we examined the effect of rocaglamides on activities of MAP kinases.

NF-kappa B [2] = conditions: Baumann et al., 2002; cited from earlier work

Compound	nuclear levels of p65 (NF-kappa B subunit p65)	NF-kappa B activity (NF-kappa B [1]; concentrations up to 100 nM)	expression of phosphor-JNK (p-JNK) (JNK)	NF-kappa B activity induced by TNF-α or PMA (NF-kappa B [2])	inhibition of NF-kappa B-dependent transcription (NF-kappa B [1])
COc1ccc([C@@]23Oc4cc(OC)cc(OC)c4[C@]2(O)[C@H](O)[C@H](C(=O)N(C)C)[C@H]3c2ccccc2)cc1 [Roc-1]	slightly elevated	subtle increase	stronger inducers of p-JNK than Roc-2	inhibit NF-kappa B activity	
COc1ccc([C@@]23Oc4cc(OC)cc(OC)c4[C@]2(O)[C@H](OC(C)=O)[C@H](C(=O)N(C)C)[C@H]3c2ccccc2)cc1 [Roc-2]			Roc-1 and 3 are stronger inducers of p-JNK than Roc-2		about 20%
COC(=O)[C@H]1[C@@H](OC=O)[C@@]2(O)c3c(OC)cc(OC)cc3O[C@@]2(c2ccc3c(c2)OCO3)[C@@H]1c1ccccc1 [Roc-3]			stronger inducers of p-JNK than Roc-2		about 20%
